Test results as given in publication PMC10784415 (Developmental dynamics : an official publication of the …, 2023).

Assays:
[1] = Toxicokinetics of infigratinib in juvenile rat plasma after oral gavage; format: in vivo, Crl:WI(Han) rat; conditions: Crl:WI(Han), rat, plasma, po
[2] = tested on: Wistar rats; assay: Histology and immunohistochemistry of mandibles; format: in vivo, rat
[3] = tested on: CYP 3A4; conditions: liver; cited from earlier work
[4] = female, 0.1 mg/kg/day, Female rats, 0.1 mg/kg/day oral, PND 35
[5] = female, 0.1 mg/kg/day, Female rats, 0.1 mg/kg/day oral, PND 7
[6] = female, 0.1 mg/kg/day, Female rats, 0.1 mg/kg/day oral, PND 12
[7] = female, 0.1 mg/kg/day, Female rats, 0.1 mg/kg/day oral, PND 23
[8] = female, 0.3 mg/kg/day, Female rats, 0.3 mg/kg/day oral, PND 7
[9] = female, 0.3 mg/kg/day, Female rats, 0.3 mg/kg/day oral, PND 12
[10] = female, 0.3 mg/kg/day, Female rats, 0.3 mg/kg/day oral, PND 23
[11] = female, 0.3 mg/kg/day, Female rats, 0.3 mg/kg/day oral, PND 35
[12] = female, 1 mg/kg/day, Female rats, 1.0 mg/kg/day oral, PND 7
[13] = female, 1 mg/kg/day, Female rats, 1.0 mg/kg/day oral, PND 12
[14] = female, 1 mg/kg/day, Female rats, 1.0 mg/kg/day oral, PND 23
[15] = female, 1 mg/kg/day, Female rats, 1.0 mg/kg/day oral, PND 35
[16] = male, 0.1 mg/kg/day, Male rats, 0.1 mg/kg/day oral, PND 7
[17] = male, 0.1 mg/kg/day, Male rats, 0.1 mg/kg/day oral, PND 12
[18] = male, 0.1 mg/kg/day, Male rats, 0.1 mg/kg/day oral, PND 23
[19] = male, 0.1 mg/kg/day, Male rats, 0.1 mg/kg/day oral, PND 35
[20] = male, 0.3 mg/kg/day, Male rats, 0.3 mg/kg/day oral, PND 7
[21] = male, 0.3 mg/kg/day, Male rats, 0.3 mg/kg/day oral, PND 12
[22] = male, 0.3 mg/kg/day, Male rats, 0.3 mg/kg/day oral, PND 23
[23] = male, 0.3 mg/kg/day, Male rats, 0.3 mg/kg/day oral, PND 35
[24] = male, 1 mg/kg/day, Male rats, 1.0 mg/kg/day oral, PND 7
[25] = male, 1 mg/kg/day, Male rats, 1.0 mg/kg/day oral, PND 12
[26] = male, 1 mg/kg/day, Male rats, 1.0 mg/kg/day oral, PND 23
[27] = male, 1 mg/kg/day, Male rats, 1.0 mg/kg/day oral, PND 35

Q: Which results are given for `CCN1CCN(c2ccc(Nc3cc(N(C)C(=O)Nc4c(Cl)c(OC)cc(OC)c4Cl)ncn3)cc2)CC1` [infigratinib, 3-(2,6-Dichloro-3,5-dimethoxy-phenyl)-1-{6-[4-(4-ethyl-piperazin-1-yl)-phenylamino]-pyrimidin-4-yl}-1-methyl-urea]?
A: AUC(0-t) [1, 4]: 1.4 ng·h/mL; Cmax [1, 5]: 4.18 ng/mL; Cmax [1, 6]: 3.4 ng/mL; Cmax [1, 7]: 0.78 ng/mL; Cmax [1, 4]: 0.3 ng/mL; half-life ([1]; female, 0.1 mg/kg/day, T1/2, Female rats, 0.1 mg/kg/day oral, PND 7): 4.7 h; half-life ([1]; female, 0.1 mg/kg/day, T1/2, Female rats, 0.1 mg/kg/day oral, PND 12): 5.66 h; Tmax [1, 5]: 3 h; Tmax [1, 6]: 3 h; Tmax [1, 7]: 3 h; Tmax [1, 4]: 1 h; AUC(0-t) [1, 8]: 183 ng·h/mL; AUC(0-t) [1, 9]: 137 ng·h/mL; AUC(0-t) [1, 10]: 18.8 ng·h/mL; AUC(0-t) [1, 11]: 4.54 ng·h/mL; Cmax [1, 8]: 19.4 ng/mL; Cmax [1, 9]: 14.9 ng/mL; Cmax [1, 10]: 2.25 ng/mL; Cmax [1, 11]: 0.66 ng/mL; half-life ([1]; female, 0.3 mg/kg/day, T1/2, Female rats, 0.3 mg/kg/day oral, PND 7): 4.26 h; half-life ([1]; female, 0.3 mg/kg/day, T1/2, Female rats, 0.3 mg/kg/day oral, PND 12): 3.82 h; half-life ([1]; female, 0.3 mg/kg/day, T1/2, Female rats, 0.3 mg/kg/day oral, PND 23): 4.53 h; Tmax [1, 8]: 3 h; Tmax [1, 9]: 3 h; Tmax [1, 10]: 3 h; Tmax [1, 11]: 3 h; AUC(0-t) [1, 12]: 516 ng·h/mL; AUC(0-t) [1, 13]: 593 ng·h/mL; AUC(0-t) [1, 14]: 73 ng·h/mL; Cmax [1, 12]: 53.2 ng/mL; Cmax [1, 13]: 56.6 ng/mL; Cmax [1, 14]: 10.4 ng/mL; Cmax [1, 15]: 4.04 ng/mL; half-life ([1]; female, 1 mg/kg/day, T1/2, Female rats, 1.0 mg/kg/day oral, PND 7): 5.23 h; half-life ([1]; female, 1 mg/kg/day, T1/2, Female rats, 1.0 mg/kg/day oral, PND 12): 3.97 h; half-life ([1]; female, 1 mg/kg/day, T1/2, Female rats, 1.0 mg/kg/day oral, PND 23): 3.25 h; half-life ([1]; female, 1 mg/kg/day, T1/2, Female rats, 1.0 mg/kg/day oral, PND 35): 2.51 h; Tmax [1, 12]: 3 h; Tmax [1, 13]: 1 h; Tmax [1, 14]: 1 h; Tmax [1, 15]: 1 h; AUC(0-t) [1, 16]: 31.9 ng·h/mL; AUC(0-t) [1, 17]: 39.4 ng·h/mL; AUC(0-t) [1, 18]: 3.81 ng·h/mL; AUC(0-t) [1, 19]: 1.95 ng·h/mL; Cmax [1, 16]: 3.21 ng/mL; Cmax [1, 17]: 3.32 ng/mL; Cmax [1, 18]: 0.577 ng/mL; Cmax [1, 19]: 0.307 ng/mL; half-life ([1]; male, 0.1 mg/kg/day, T1/2, Male rats, 0.1 mg/kg/day oral, PND 7): 5.1 h; half-life ([1]; male, 0.1 mg/kg/day, T1/2, Male rats, 0.1 mg/kg/day oral, PND 12): 6.34 h; half-life ([1]; male, 0.1 mg/kg/day, T1/2, Male rats, 0.1 mg/kg/day oral, PND 35): 2.2 h; Tmax [1, 16]: 3 h; Tmax [1, 17]: 3 h; Tmax [1, 18]: 3 h; Tmax [1, 19]: 1 h; AUC(0-t) [1, 20]: 114 ng·h/mL; AUC(0-t) [1, 21]: 149 ng·h/mL; AUC(0-t) [1, 22]: 21.5 ng·h/mL; AUC(0-t) [1, 23]: 6 ng·h/mL; Cmax [1, 20]: 11.6 ng/mL; Cmax [1, 21]: 14.1 ng/mL; Cmax [1, 22]: 2.13 ng/mL; Cmax [1, 23]: 0.924 ng/mL; half-life ([1]; male, 0.3 mg/kg/day, T1/2, Male rats, 0.3 mg/kg/day oral, PND 7): 5.58 h; half-life ([1]; male, 0.3 mg/kg/day, T1/2, Male rats, 0.3 mg/kg/day oral, PND 12): 3.75 h; half-life ([1]; male, 0.3 mg/kg/day, T1/2, Male rats, 0.3 mg/kg/day oral, PND 23): 4.37 h; Tmax [1, 20]: 3 h; Tmax [1, 21]: 3 h; Tmax [1, 22]: 3 h; Tmax [1, 23]: 3 h; AUC(0-t) [1, 24]: 375 ng·h/mL; AUC(0-t) [1, 25]: 596 ng·h/mL; AUC(0-t) [1, 26]: 87.2 ng·h/mL; AUC(0-t) [1, 27]: 24.3 ng·h/mL; Cmax [1, 24]: 37.3 ng/mL; Cmax [1, 25]: 68.8 ng/mL; Cmax [1, 26]: 11.2 ng/mL; Cmax [1, 27]: 2.98 ng/mL; half-life ([1]; male, 1 mg/kg/day, T1/2, Male rats, 1.0 mg/kg/day oral, PND 12): 3.33 h; half-life ([1]; male, 1 mg/kg/day, T1/2, Male rats, 1.0 mg/kg/day oral, PND 23): 3.64 h; Tmax [1, 24]: 7 h; Tmax [1, 25]: 3 h; Tmax [1, 26]: 3 h; Tmax [1, 27]: 3 h; Rats with root resorption (cathepsin K staining) ([2]; female rats, high dose, PND37 (vehicle 75%)): 25%; Rats with root resorption (cathepsin K staining) ([2]; female rats, low dose, PND37 (vehicle 75%)): 50%; Rats with root resorption (cathepsin K staining) ([2]; male rats, low or high dose, PND37 (vehicle 25%)): no male rats in either low or high dose groups exhibited root resorption; Metabolism [3]: metabolized mainly via CYP 3A4
